Test results as given in ChEMBL document CHEMBL4400521, “Plasma kallikrein cleaves and inactivates apelin-17: Palmitoyl- and PEG-extended apelin-17 analogs as metabolically stable blood pressure-lowering agents” (Eur J Med Chem, 2019).
Activity calls are given as the source filed them. The calls are words filed in the database; no cut-off is given here. Non-standard residues stand in square brackets, D forms with d. Residues, ends and D or L forms follow the SMILES beside them. *: point of attachment. Phe(4-Br) = N[C@@H](Cc1ccc(Br)cc1)C(=O)O; Fmoc = O=C(OCC1c2ccccc2-c2ccccc21)*; PEG6 = NCCOCCOCCOCCOCCOCCOCCC(=O)O; Palmitoyl = CCCCCCCCCCCCCCCC(=O)*; NMeL = CN[C@@H](CC(C)C)C(=O)O; Nle = CCCC[C@H](N)C(=O)O; Aib = CC(C)(N)C(=O)O

Tests used:
Mus musculus [1] = assay: Blood pressure lowering activity in anesthetized mouse assessed as change in mean arterial blood pressure at 1.4 uM/kg, iv; type: functional; conditions: TDE = time-dependent effect
[2] = molecular target: T1, Apelin receptor (Rattus norvegicus) (UniProt Q9JHG3); assay: Displacement of [125I]-(Glp1,Nle11,[…])apelin-13 from recombinant rat EGFP-fused apelin receptor expressed in CHO cell membrane measured after 3 hrs; type: cell membranes
T1 sequence (whole entry): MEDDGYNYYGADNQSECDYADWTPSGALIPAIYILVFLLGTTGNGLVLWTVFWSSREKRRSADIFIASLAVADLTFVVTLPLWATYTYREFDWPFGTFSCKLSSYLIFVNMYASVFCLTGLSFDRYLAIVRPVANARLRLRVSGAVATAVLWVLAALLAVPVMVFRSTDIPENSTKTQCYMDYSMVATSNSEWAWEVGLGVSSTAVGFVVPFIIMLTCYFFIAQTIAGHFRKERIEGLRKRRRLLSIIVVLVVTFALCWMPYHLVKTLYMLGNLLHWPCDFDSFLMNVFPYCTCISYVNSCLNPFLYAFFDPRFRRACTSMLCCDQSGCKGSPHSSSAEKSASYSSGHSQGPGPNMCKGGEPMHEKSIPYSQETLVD

Mus musculus [3] = assay: Blood pressure lowering activity in anesthetized mouse assessed as increase in heart rate at 1.4 uM/kg, iv measured up to 60 mins; type: functional, organism-based
[4] = tested on: CSCC[C@H](NC(=O)[C@H](CO)NC(=O)[C@H](CO)NC(=O)[C@H](CC(C)C)NC(=O)[C@@H](N)CO)C(=O)N[C@H](C(=O)N[C@@H](CCCNC(=N)N)C(=O)N[C@H](C(=O)N[C@H](C(=O)NCC(=O)NCC(=O)O)C(C)C)C(C)C)[C@@H](C)O; assay: Substrate activity at human KLKB1 assessed as Km by spectrofluorimetric method; type: ADME
[5] = tested on: CCCC[C@H](NC(=O)[C@@H]1CCCN1C(=O)CNC(=O)[C@H](CCCCN)NC(=O)[C@H](Cc1c[nH]cn1)NC(=O)[C@H](CO)NC(=O)[C@H](CC(C)C)NC(=O)[C@H](CCCNC(=N)N)NC(=O)[C@@H]1CCCN1C(=O)[C@H](CCCNC(=N)N)NC(=O)[C@H](CCC(N)=O)NC(=O)[C@H](CCCNC(=N)N)NC(=O)[C@H](CCCNC(=N)N)NC(=O)[C@H](Cc1ccccc1)NC(=O)[C@@H](N)CCCCN)C(=O)NC(C)(C)C(=O)N[C@@H](Cc1ccc(Br)cc1)C(=O)O; assay: (§1) Substrate activity at recombinant human C-terminal His6-tagged KLKB1 (Pro19 to Ser262 residues) expressed in mammalian expression system assessed as Km measured after 30 to 60 mins by LC-MS analysis; type: ADME
[6] = tested on: CCCC[C@H](NC(=O)[C@@H]1CCCN1C(=O)CNC(=O)[C@H](CCCCN)NC(=O)[C@H](Cc1c[nH]cn1)NC(=O)[C@H](CO)NC(=O)[C@H](CC(C)C)N(C)C(=O)[C@H](CCCNC(=N)N)NC(=O)[C@@H]1CCCN1C(=O)[C@H](CCCNC(=N)N)NC(=O)[C@H](CCC(N)=O)NC(=O)[C@H](CCCNC(=N)N)NC(=O)[C@H](CCCNC(=N)N)NC(=O)[C@H](Cc1ccccc1)NC(=O)[C@@H](N)CCCCN)C(=O)NC(C)(C)C(=O)N[C@@H](Cc1ccc(Br)cc1)C(=O)O; assay: as §1; type: ADME
[7] = tested on: CC[C@H](C)[C@H](NC(=O)[C@H](CCCNC(=N)N)NC(=O)[C@H](CC(C)C)NC(=O)[C@H](CO)NC(=O)[C@H](CCCNC(=N)N)NC(=O)[C@H](Cc1ccccc1)NC(=O)[C@@H]1CCCN1C(=O)[C@H](CO)NC(=O)[C@H](Cc1ccccc1)NC(=O)CNC(=O)c1ccccc1N)C(=O)N[C@@H](CCC(N)=O)C(=O)NCCNc1ccc([N+](=O)[O-])cc1[N+](=O)[O-]; assay: (§2) Substrate activity at human KLKB1 assessed as Km by fluorescence assay; type: ADME
[8] = tested on: CC[C@H](C)[C@H](NC(=O)[C@H](CCCNC(=N)N)NC(=O)[C@H](CO)NC(=O)[C@H](CO)NC(=O)[C@H](CCCNC(=N)N)NC(=O)[C@H](Cc1ccccc1)NC(=O)[C@@H]1CCCN1C(=O)[C@H](CO)NC(=O)[C@H](Cc1ccccc1)NC(=O)CNC(=O)c1ccccc1N)C(=O)N[C@@H](CCC(N)=O)C(=O)NCCNc1ccc([N+](=O)[O-])cc1[N+](=O)[O-]; assay: as §2; type: ADME

Chain of Plasma kallikrein (Homo sapiens) (chain, as listed by the source): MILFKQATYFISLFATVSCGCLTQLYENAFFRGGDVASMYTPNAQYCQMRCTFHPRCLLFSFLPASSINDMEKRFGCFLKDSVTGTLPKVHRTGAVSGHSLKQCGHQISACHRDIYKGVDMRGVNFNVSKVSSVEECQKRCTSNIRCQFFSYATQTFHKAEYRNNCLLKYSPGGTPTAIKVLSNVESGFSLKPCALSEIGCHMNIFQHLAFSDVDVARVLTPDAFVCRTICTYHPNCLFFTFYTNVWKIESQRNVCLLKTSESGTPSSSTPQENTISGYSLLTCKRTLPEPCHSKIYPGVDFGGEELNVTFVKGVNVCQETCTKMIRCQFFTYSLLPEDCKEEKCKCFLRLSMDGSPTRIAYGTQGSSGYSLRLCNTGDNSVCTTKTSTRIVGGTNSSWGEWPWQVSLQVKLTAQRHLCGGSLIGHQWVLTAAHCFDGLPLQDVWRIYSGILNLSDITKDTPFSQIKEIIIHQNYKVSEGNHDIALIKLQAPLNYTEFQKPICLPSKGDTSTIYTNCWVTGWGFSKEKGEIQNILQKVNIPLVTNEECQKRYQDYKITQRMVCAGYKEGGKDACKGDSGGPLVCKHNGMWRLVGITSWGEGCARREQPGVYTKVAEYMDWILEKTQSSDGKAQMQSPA

displacement activity (active/inactive) [2] | Compound | Activity (Mus musculus [1]) | further results
Active | CCCC[C@H](NC(=O)[C@@H]1CCCN1C(=O)CNC(=O)[C@H](CCCCN)NC(=O)[C@H](Cc1c[nH]cn1)NC(=O)[C@H](CO)NC(=O)[C@H](CC(C)C)NC(=O)[C@H](CCCNC(=N)N)NC(=O)[C@@H]1CCCN1C(=O)[C@H](CCCNC(=N)N)NC(=O)[C@H](CCC(N)=O)NC(=O)[C@H](CCCNC(=N)N)NC(=O)[C@H](CCCNC(=N)N)NC(=O)[C@H](Cc1ccccc1)NC(=O)[C@@H](N)CCCCN)C(=O)NC(C)(C)C(=O)N[C@@H](Cc1ccc(Br)cc1)C(=O)O (H-KFRRQRPRLSHKGP[Nle][Aib][Phe(4-Br)]-OH) | Tde | 
Active | CCCC[C@H](NC(=O)[C@@H]1CCCN1C(=O)CNC(=O)[C@H](CCCCN)NC(=O)[C@H](Cc1c[nH]cn1)NC(=O)[C@H](CO)NC(=O)[C@H](CC(C)C)N(C)C(=O)[C@H](CCCNC(=N)N)NC(=O)[C@@H]1CCCN1C(=O)[C@H](CCCNC(=N)N)NC(=O)[C@H](CCC(N)=O)NC(=O)[C@H](CCCNC(=N)N)NC(=O)[C@H](CCCNC(=N)N)NC(=O)[C@H](Cc1ccccc1)NC(=O)[C@@H](N)CCCCN)C(=O)NC(C)(C)C(=O)N[C@@H](Cc1ccc(Br)cc1)C(=O)O (H-KFRRQRPR[NMeL]SHKGP[Nle][Aib][Phe(4-Br)]-OH) | Tde | 
Active | CCCCCCCCCCCCCCCC(=O)N[C@@H](CCCCN)C(=O)N[C@@H](Cc1ccccc1)C(=O)N[C@@H](CCCNC(=N)N)C(=O)N[C@@H](CCCNC(=N)N)C(=O)N[C@@H](CCC(N)=O)C(=O)N[C@@H](CCCNC(=N)N)C(=O)N1CCC[C@H]1C(=O)N[C@@H](CCCNC(=N)N)C(=O)N[C@@H](CC(C)C)C(=O)N[C@@H](CO)C(=O)N[C@@H](Cc1cnc[nH]1)C(=O)N[C@@H](CCCCN)C(=O)NCC(=O)N1CCC[C@H]1C(=O)N[C@@H](CCCC)C(=O)NC(C)(C)C(=O)N[C@@H](Cc1ccc(Br)cc1)C(=O)O (Palmitoyl-KFRRQRPRLSHKGP[Nle][Aib][Phe(4-Br)]-OH) | Tde | 
Active | CCCCCCCCCCCCCCCC(=O)N[C@@H](CCCCN)C(=O)N[C@@H](Cc1ccccc1)C(=O)N[C@@H](CCCNC(=N)N)C(=O)N[C@@H](CCCNC(=N)N)C(=O)N[C@@H](CCC(N)=O)C(=O)N[C@@H](CCCNC(=N)N)C(=O)N1CCC[C@H]1C(=O)N[C@@H](CCCNC(=N)N)C(=O)N(C)[C@@H](CC(C)C)C(=O)N[C@@H](CO)C(=O)N[C@@H](Cc1cnc[nH]1)C(=O)N[C@@H](CCCCN)C(=O)NCC(=O)N1CCC[C@H]1C(=O)N[C@@H](CCCC)C(=O)NC(C)(C)C(=O)N[C@@H](Cc1ccc(Br)cc1)C(=O)O (Palmitoyl-KFRRQRPR[NMeL]SHKGP[Nle][Aib][Phe(4-Br)]-OH) |  | Activity (Mus musculus [3]): Active

Further lines, the compound ahead of its results:

Compound | displacement activity (active/inactive) [2] | Activity (Mus musculus [1]) | further results
CSCC[C@H](NC(=O)[C@@H]1CCCN1C(=O)CNC(=O)[C@H](CCCCN)NC(=O)[C@H](Cc1cnc[nH]1)NC(=O)[C@H](CO)NC(=O)[C@H](CC(C)C)NC(=O)[C@H](CCCNC(=N)N)NC(=O)[C@@H]1CCCN1C(=O)[C@H](CCCNC(=N)N)NC(=O)[C@H](CCC(N)=O)NC(=O)[C@H](CCCNC(=N)N)NC(=O)[C@H](CCCNC(=N)N)NC(=O)[C@H](Cc1ccccc1)NC(=O)[C@@H](N)CCCCN)C(=O)N1CCC[C@H]1C(=O)N[C@@H](Cc1ccccc1)C(=O)O |  | Tde | 
CCCC[C@H](NC(=O)[C@@H]1CCCN1C(=O)CNC(=O)[C@H](CCCCN)NC(=O)[C@H](Cc1cnc[nH]1)NC(=O)[C@H](CO)NC(=O)[C@H](CC(C)C)NC(=O)[C@H](CCCNC(=N)N)NC(=O)[C@@H]1CCCN1C(=O)[C@H](CCCNC(=N)N)NC(=O)[C@H](CCC(N)=O)NC(=O)[C@@H](N)CCCNC(=N)N)C(=O)NC(C)(C)C(=O)N[C@@H](Cc1ccc(Br)cc1)C(=O)O (H-RQRPRLSHKGP[Nle][Aib][Phe(4-Br)]-OH) | Active | Tde | 
CCCC[C@H](NC(=O)[C@@H]1CCCN1C(=O)CNC(=O)[C@H](CCCCN)NC(=O)[C@H](Cc1cnc[nH]1)NC(=O)[C@H](CO)NC(=O)[C@H](CC(C)C)N(C)C(=O)[C@H](CCCNC(=N)N)NC(=O)[C@@H]1CCCN1C(=O)[C@H](CCCNC(=N)N)NC(=O)[C@H](CCC(N)=O)NC(=O)[C@@H](N)CCCNC(=N)N)C(=O)NC(C)(C)C(=O)N[C@@H](Cc1ccc(Br)cc1)C(=O)O (H-RQRPR[NMeL]SHKGP[Nle][Aib][Phe(4-Br)]-OH) | Active | Tde | 
CCCC[C@H](NC(=O)[C@@H]1CCCN1C(=O)CNC(=O)[C@H](CCCCN)NC(=O)[C@H](Cc1cnc[nH]1)NC(=O)[C@H](CO)NC(=O)[C@H](CC(C)C)NC(=O)[C@H](CCCNC(=N)N)NC(=O)[C@@H]1CCCN1C(=O)[C@H](CCCNC(=N)N)NC(=O)[C@H](CCC(N)=O)NC(=O)[C@H](CCCNC(=N)N)NC(=O)[C@H](CCCNC(=N)N)NC(=O)[C@H](Cc1ccccc1)NC(=O)[C@H](CCCCN)NC(=O)CCOCCOCCOCCOCCOCCOCCNC(=O)OCC1c2ccccc2-c2ccccc21)C(=O)NC(C)(C)C(=O)N[C@@H](Cc1ccc(Br)cc1)C(=O)O ({Fmoc-PEG6}-KFRRQRPRLSHKGP[Nle][Aib][Phe(4-Br)]-OH) | Active | Tde | 
CCCC[C@H](NC(=O)[C@@H]1CCCN1C(=O)CNC(=O)[C@H](CCCCN)NC(=O)[C@H](Cc1cnc[nH]1)NC(=O)[C@H](CO)NC(=O)[C@H](CC(C)C)N(C)C(=O)[C@H](CCCNC(=N)N)NC(=O)[C@@H]1CCCN1C(=O)[C@H](CCCNC(=N)N)NC(=O)[C@H](CCC(N)=O)NC(=O)[C@H](CCCNC(=N)N)NC(=O)[C@H](CCCNC(=N)N)NC(=O)[C@H](Cc1ccccc1)NC(=O)[C@H](CCCCN)NC(=O)CCOCCOCCOCCOCCOCCOCCNC(=O)OCC1c2ccccc2-c2ccccc21)C(=O)NC(C)(C)C(=O)N[C@@H](Cc1ccc(Br)cc1)C(=O)O ({Fmoc-PEG6}-KFRRQRPR[NMeL]SHKGP[Nle][Aib][Phe(4-Br)]-OH) | Active | Tde | 
Plasma kallikrein (Homo sapiens) |  |  | Km [4]: 2.4 µM; kcat [4]: 0.001 s⁻¹; kcat/Km [4]: 420 M⁻¹ s⁻¹; Km [5]: 30 µM; Vmax [5]: 0.316 µmol/min; kcat [5]: 1.4 s⁻¹; kcat/Km [5]: 47000 M⁻¹ s⁻¹; Km [6]: 245 µM; Vmax [6]: 3.71 µmol/min; kcat [6]: 16.5 s⁻¹; kcat/Km [6]: 67000 M⁻¹ s⁻¹; Km [7]: 1.8 µM; Km [8]: 2.2 µM
